melting point [°C] | Compound
248 to 256 | CC(C)=CC1C[C@@](C)(O[C@@H]2OC[C@H](O)C(O)C2O)C2C3CCC4[C@@]5(C)CC[C@H](O[C@@H]6OC[C@H](O)C(O[C@@H]7OC(CO)[C@@H](O)C(O)C7O)C6O[C@@H]6O[C@@H](CO)C(O)C6O)C(C)(C)C5CC[C@@]4(C)[C@@]34CO[C@@]2(C4)O1 (stereo partly drawn)
246 to 258 | CC(C)=CC1C[C@@](C)(O[C@@H]2OC[C@H](O)C(O)C2O)C2C3CCC4[C@@]5(C)CC[C@H](O[C@@H]6OC(CO)[C@@H](O)C(O[C@@H]7OC(CO)[C@@H](O)C(O)C7O)C6O[C@@H]6O[C@@H](CO)C(O)C6O)C(C)(C)C5CC[C@@]4(C)[C@@]34CO[C@@]2(C4)O1 (stereo partly drawn)
278 to 282 | CC(C)=C[C@H]1CO[C@]23C[C@]4(CO2)C(CCC2[C@@]5(C)CC[C@H](O[C@@H]6OC(CO)[C@@H](O)C(O[C@@H]7OC(CO)[C@@H](O)C(O)C7O)C6O)C(C)(C)C5CC[C@]24C)C3[C@]1(C)O (stereo partly drawn)

From US8541381B2, “Process for producing enriched fractions containing up to 100% of bacopasaponins from the plant materials of bacopa species” (Laila Impex, priority 2005, dated 2013)
